From patent US10294202B2, “Pyrrolidinones as herbicides” (FMC Corporation, priority 2013, dated 2019)

Experiments:
sedge, umbrella = test: Test B flooded paddy test; type: in vivo, Cyperus difformis; settings: 500 g ai/ha, Flood; scale of 0 to 100 where 0 is no effect and 100 is complete control
In short: (§1)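 Plants were grown to the 2-leaf stage, then pots were flooded to 3 cm above the soil and compound was applied directly into the paddy water, with that depth held throughout. After 13 to 15 days in a greenhouse, injury was rated visually against untreated controls on a 0 to 100 scale (100 = complete control).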

ragweed = test: Test A pre-/postemergence herbicide test; type: in vivo, Ambrosia elatior; settings: for Plant response rating, Ragweed: 0 to 100 scale
In short: (§2)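 Formulated compound (non-phytotoxic solvent, surfactant) sprayed pre- onto soil of seeded loam/sand pots or post- onto seedlings at 1–2 leaves; ~10 d greenhouse; 0–100 visual control rating versus untreated.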

ryegrass, Italian = test: Test A pre-/postemergence herbicide test; type: in vivo, Lolium multiflorum; settings: for Plant response rating, Ryegrass, Italian: 0 to 100 scale
In short: as §2

pigweed = test: Test A pre-/postemergence herbicide test; type: in vivo, Amaranthus retroflexus; settings: for Plant response rating, Pigweed: 0 to 100 scale
In short: as §2

corn = test: Test A pre-/postemergence herbicide test; type: in vivo, Zea mays; settings: Postemergence; for Plant response rating, Corn: 125 g ai/ha, 0 to 100 scale, 0 is no effect, 100 is complete control; for Corn plant response rating (0 to 100 scale, 0 is no effect, 100 is complete control): 500 g ai/ha
In short: as §2

galium = test: Test A postemergence herbicide test; type: in vivo, Galium aparine; settings: for Plant response rating, Galium: 125 g ai/ha, 0 to 100 scale, 0 is no effect, 100 is complete control; for Galium plant response rating (0 to 100 scale, 0 is no effect, 100 is complete control): 500 g ai/ha
In short: (§3)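 Ratings compare treated with untreated plants roughly 10 days after a postemergence application made at the one- to two-leaf stage. Scoring uses 0–100, where 0 means no effect and 100 complete control.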

giant foxtail = test: Test A pre-/postemergence herbicide test; type: in vivo, Setaria faberii; settings: for Plant response rating, Foxtail, Giant: 0 to 100 scale
In short: as §2

wheat = test: Test A pre-/postemergence herbicide test; type: in vivo, Triticum aestivum; settings: Postemergence; for Plant response rating, Wheat: 125 g ai/ha, 0 to 100 scale, 0 is no effect, 100 is complete control; for Wheat plant response rating (0 to 100 scale, 0 is no effect, 100 is complete control): 500 g ai/ha
In short: as §2

barnyardgrass [1] = test: Test B flooded paddy test; type: in vivo, Echinochloa crus-galli; settings: 500 g ai/ha, Flood; scale of 0 to 100 where 0 is no effect and 100 is complete control
In short: as §1

barnyardgrass [2] = test: Test A pre-/postemergence herbicide test; type: in vivo, Echinochloa crus-galli; settings: for Plant response rating, Barnyardgrass: 0 to 100 scale
In short: as §2

rice = test: Test B flooded paddy test; type: in vivo, Oryza sativa; settings: 500 g ai/ha, Flood; scale of 0 to 100 where 0 is no effect and 100 is complete control
In short: as §1

ducksalad = test: Test B flooded paddy test; type: in vivo, Heteranthera limosa; settings: 500 g ai/ha, Flood; scale of 0 to 100 where 0 is no effect and 100 is complete control
In short: as §1

blackgrass = test: Test A postemergence herbicide test; type: in vivo, Alopecurus myosuroides; settings: for Plant response rating, Blackgrass: 125 g ai/ha, 0 to 100 scale, 0 is no effect, 100 is complete control; for Blackgrass plant response rating (0 to 100 scale, 0 is no effect, 100 is complete control): 500 g ai/ha
In short: as §3

kochia = test: Test A pre-/postemergence herbicide test; type: in vivo, Kochia scoparia; settings: for Plant response rating, Kochia: 0 to 100 scale
In short: as §2

[3] = 125 g ai/ha, visual rating, 0 no effect, 100 complete control, approximately 10 days, preemergence
[4] = Postemergence, 125 g ai/ha, 0 is no effect, 100 is complete control
[5] = preemergence, 500 g ai/ha, 0 is no effect and 100 is complete control

Structure (SMILES)	Plant response rating, Sedge, Umbrella (sedge, umbrella)	Plant response rating, Ragweed (ragweed; [3])	Plant response rating, Ragweed (ragweed; [4])	Ragweed plant response rating (0 to 100 scale, 0 is no effect, 100 is complete control) (ragweed; Postemergence, 500 g ai/ha)	Plant response rating, Ryegrass, Italian (ryegrass, Italian; [3])	Plant response rating, Ryegrass, Italian (ryegrass, Italian; [4])	Ryegrass, Italian plant response rating (0 to 100 scale, 0 is no effect, 100 is complete control) (ryegrass, Italian; Postemergence, 500 g ai/ha)	Plant response rating, Ryegrass, Italian (ryegrass, Italian; [5])	Plant response rating, Pigweed (pigweed; [3])	Plant response rating, Pigweed (pigweed; [4])	Pigweed plant response rating (0 to 100 scale, 0 is no effect, 100 is complete control) (pigweed; Postemergence, 500 g ai/ha)	Plant response rating, Pigweed (pigweed; [5])	Plant response rating, Corn (corn)	Corn plant response rating (0 to 100 scale, 0 is no effect, 100 is complete control) (corn)	Plant response rating, Galium (galium)	Galium plant response rating (0 to 100 scale, 0 is no effect, 100 is complete control) (galium)	Plant response rating, Foxtail, Giant (giant foxtail; [3])	Plant response rating, Foxtail, Giant (giant foxtail; [4])	Foxtail, Giant plant response rating (0 to 100 scale, 0 is no effect, 100 is complete control) (giant foxtail; Postemergence, 500 g ai/ha)	Plant response rating, Foxtail, Giant (giant foxtail; [5])	other results
O=C1NCC(c2ccc(OC(F)F)cc2)C1C(=O)Nc1ccccc1Cl (centres unmarked) [Compound 226]	0	0	0	0	0	0	20	20	0	0	0	30	0	0	20	20	70	70	80	90	Plant response rating, Ragweed (ragweed; [5]): 0; Plant response rating, Wheat (wheat): 0; Wheat plant response rating (0 to 100 scale, 0 is no effect, 100 is complete control) (wheat): 0; Plant response rating, Barnyardgrass (barnyardgrass [1]): 0; Plant response rating, Barnyardgrass (barnyardgrass [2]; [3]): 50; Plant response rating, Barnyardgrass (barnyardgrass [2]; [4]): 30; Barnyardgrass plant response rating (0 to 100 scale, 0 is no effect, 100 is complete control) (barnyardgrass [2]; Postemergence, 500 g ai/ha): 80; Plant response rating, Barnyardgrass (barnyardgrass [2]; [5]): 90; Plant response rating, Rice (rice): 0; Plant response rating, Ducksalad (ducksalad): 100; Plant response rating, Blackgrass (blackgrass): 20; Blackgrass plant response rating (0 to 100 scale, 0 is no effect, 100 is complete control) (blackgrass): 30; Plant response rating, Kochia (kochia; [3]): 0; Plant response rating, Kochia (kochia; [4]): 30; Kochia plant response rating (0 to 100 scale, 0 is no effect, 100 is complete control) (kochia; Postemergence, 500 g ai/ha): 50; Plant response rating, Kochia (kochia; [5]): 30
O=C1NCC(c2cccc(OC(F)F)c2)C1C(=O)Nc1ccccc1Cl (centres unmarked) [Compound 229]	0	0	20	60	10	30	40	20	0	0	0	0	0	0	60	70	90	80	90	90	Plant response rating, Wheat (wheat): 0; Wheat plant response rating (0 to 100 scale, 0 is no effect, 100 is complete control) (wheat): 0; Plant response rating, Barnyardgrass (barnyardgrass [1]): 50; Plant response rating, Barnyardgrass (barnyardgrass [2]; [3]): 70; Plant response rating, Barnyardgrass (barnyardgrass [2]; [4]): 70; Barnyardgrass plant response rating (0 to 100 scale, 0 is no effect, 100 is complete control) (barnyardgrass [2]; Postemergence, 500 g ai/ha): 80; Plant response rating, Barnyardgrass (barnyardgrass [2]; [5]): 90; Plant response rating, Rice (rice): 0; Plant response rating, Ducksalad (ducksalad): 100; Plant response rating, Blackgrass (blackgrass): 40; Blackgrass plant response rating (0 to 100 scale, 0 is no effect, 100 is complete control) (blackgrass): 70; Plant response rating, Kochia (kochia; [3]): 0; Plant response rating, Kochia (kochia; [4]): 10; Kochia plant response rating (0 to 100 scale, 0 is no effect, 100 is complete control) (kochia; Postemergence, 500 g ai/ha): 60; Plant response rating, Kochia (kochia; [5]): 70
Cc1ccccc1NC(=O)C1C(=O)NCC1c1cccc(OC(F)F)c1 (centres unmarked) [Compound 230]	0	0	0	30	0	0	20	30	0	0	0	20	20	40	20	50	90	70	90	90	Plant response rating, Ragweed (ragweed; [5]): 20; Plant response rating, Wheat (wheat): 20; Wheat plant response rating (0 to 100 scale, 0 is no effect, 100 is complete control) (wheat): 20; Plant response rating, Barnyardgrass (barnyardgrass [1]): 60; Plant response rating, Barnyardgrass (barnyardgrass [2]; [3]): 30; Plant response rating, Barnyardgrass (barnyardgrass [2]; [4]): 60; Barnyardgrass plant response rating (0 to 100 scale, 0 is no effect, 100 is complete control) (barnyardgrass [2]; Postemergence, 500 g ai/ha): 90; Plant response rating, Barnyardgrass (barnyardgrass [2]; [5]): 90; Plant response rating, Rice (rice): 0; Plant response rating, Ducksalad (ducksalad): 75; Plant response rating, Blackgrass (blackgrass): 20; Blackgrass plant response rating (0 to 100 scale, 0 is no effect, 100 is complete control) (blackgrass): 50; Plant response rating, Kochia (kochia; [3]): 0; Plant response rating, Kochia (kochia; [4]): 0; Kochia plant response rating (0 to 100 scale, 0 is no effect, 100 is complete control) (kochia; Postemergence, 500 g ai/ha): 40; Plant response rating, Kochia (kochia; [5]): 30
